Five molecules from patent US9901592B2 (priority 2008, dated 2018) can be followed below.

Structures are written as SMILES. Converted amounts (≈) assume the structure as drawn. Marks after values point to notes of the source that are not given here.

The test system of assay [1] is N. meningitidis. Description: MIC, CLSI broth microdilution, invasive isolates. In kind it is cell-based. The protocol: Example. […] Colonization of the nasopharynx (NP) by NM can lead to invasive meningococcal disease. Chemoprophylaxis is used to eradicate NP colonization and prevent transmission to nonimmune contacts. […] 62 isolates (91.9% blood culture) of NM were collected from 29 medical centers in North and South America and Europe (1997-2008). […] Serological identification was performed for serogroups (SGs) B, C, Y and W135.
Background: Dilution methods test growth across graded concentrations, often in twofold steps.

Assay [2] concerns Legionella pneumophila. Description: microbe, parasite or virus in culture. In kind it is cell-based, L. pneumophila.
For assay [3], the system named is Mycobacterium bovis BCG. In kind it is cell-based.
For assay [4], the system named is group A streptococci. Description: microbe, parasite or virus in culture. In kind it is cell-based, S. pyogenes. As to conditions: Streptococcus pyogenes.
The test system of assay [5] is pneumococci. Description: microbe, parasite or virus in culture. As to conditions: Streptococcus pneumoniae. In kind it is cell-based, S. pneumoniae.
Assay [6] relates to S. pneumoniae. In kind it is cell-based.
Assay [7] has as its system S. aureus. In kind it is cell-based.
Assay [8] has as its system ribosome erm-dimethylated at A2058. The assay can be described thus: binding to the ribosome.
[9] abbreviates: Neisseria meningitidis, 62 N. meningitidis isolates.

With `CO[C@H]1/C=C/O[C@@]2(C)Oc3c(C)c(O)c4c(O)c(c(/C=N/N5CCN(C)CC5)c(O)c4c3C2=O)NC(=O)/C(C)=C\C=C\[C@H](C)[C@H](O)[C@@H](C)[C@@H](O)[C@@H](C)[C@H](OC(C)=O)[C@@H]1C` [Rifampin], in assay [1] (CLSI (M100-S19, 2009) criteria), the “% Res.” value came out at 0.0% and the “% Susc.” value is recorded as 100.0%. In assay [1] (setting [9]), this molecule registered an MIC of 0.008 to 0.12 µg/mL (≈ 0.00972 to 0.146 µM), an MIC50 of 0.015 µg/mL (≈ 0.0182 µM) and an MIC90 of 0.06 µg/mL (≈ 0.0729 µM). In assay [2] (LPN (30)), the “MIC Range” value is listed as 0.03-0.06^a μg/ml. In addition, in assay [2] (Legionella pneumophila), the MIC50 came to 0.03 µg/mL (≈ 0.0365 µM) and the MIC90 was found to be 0.03 µg/mL (≈ 0.0365 µM). The “reduction of lethality by growth arrest” value in assay [3] (DETA-NO-induced growth arrest) was “no effect”.
As for `COc1c(N2C[C@@H]3CCCN[C@@H]3C2)c(F)cc2c(=O)c(C(=O)O)cn(C3CC3)c12` [moxifloxacin], in assay [4], the MIC50 turned out to be 0.25 µg/mL (≈ 0.623 µM) and the MIC90 was 0.25 µg/mL (≈ 0.623 µM). In assay [5] (pneumococci, L4 mutations (27)), this molecule showed an MIC50 of 0.25 µg/mL (≈ 0.623 µM) and an MIC90 of 0.5 µg/mL (≈ 1.25 µM). Moreover, in assay [5] (read-out: MIC range, pneumococci, L4 mutations (27)), the MIC is 0.125 to 4 µg/mL (≈ 0.311 to 9.96 µM). Moreover, the “activity during growth arrest relative to gatifloxacin” value in assay [3] (growth-arrested cells) is on record as 2 fold.
`CC[C@H]1OC(=O)[C@H](C)[C@@H](OC2CC(C)(OC)C(O)C(C)O2)[C@H](C)[C@@H](OC2OC(C)CC(N(C)C)C2O)[C@@](C)(OC)C[C@@H](C)C(=O)[C@H](C)[C@H]2N(CCCCn3cc(-c4ccccn4)nn3)C(=O)O[C@]12C` (stereo partly shown) [Entry 20a]: the MIC entry in assay [6] is “≦0.0625 μg/mL”; in assay [7], 8 µg/mL (≈ 8.22 µM).
For `CC[C@H]1OC(=O)[C@H](C)[C@@H](OC2CC(C)(OC)C(O)C(C)O2)[C@H](C)[C@@H](OC2OC(C)CC(N(C)C)C2O)[C@@](C)(OC)C[C@@H](C)C(=O)[C@H](C)[C@H]2N(CCCCn3cc(COc4c(Cl)cccc4Cl)nn3)C(=O)O[C@]12C` (stereo partly shown) [Entry 20d], in that order: “≦0.0625 μg/mL” and 8 µg/mL (≈ 7.47 µM).
For the molecule `CC[C@H]1OC(=O)[C@H](C)[C@@H](OC2CC(C)(OC)C(O)C(C)O2)[C@H](C)[C@@H](OC2OC(C)CC(N(C)C)C2O)[C@@](C)(OC)C[C@@H](C)C(=O)[C@H](C)[C@H]2N(CCCCn3cc(-c4cccc(N)c4)nn3)C(=O)O[C@]12C` (stereo partly shown) [Entry 20c], the MIC result in assay [6] is “≦0.0625 μg/mL”; in assay [7], 8 µg/mL (≈ 8.1 µM). Moreover, in assay [8], the “binding to the ribosome” value is on record as “considerable binding”.
